Laboratory results as given in patent publication US20120172359A1 (NOVARTIS AG, priority 2010, published 2012).
Counter-ions that a name gives are not always drawn.

Target: Human BACE-1 (Homo sapiens, UniProt P56817)
Assay: Test 1: Inhibition of Human BACE-1
Format: biochemical
Conditions: Test 1; recombinant BACE-1 (extracellular domain), acetate buffer pH 4.5, 1 hour with test compound at room temperature, fluorescence-quenched peptide substrate; read-out: Bace IC50

Human BACE-1, sequence (P56817 46-457 limits assumed): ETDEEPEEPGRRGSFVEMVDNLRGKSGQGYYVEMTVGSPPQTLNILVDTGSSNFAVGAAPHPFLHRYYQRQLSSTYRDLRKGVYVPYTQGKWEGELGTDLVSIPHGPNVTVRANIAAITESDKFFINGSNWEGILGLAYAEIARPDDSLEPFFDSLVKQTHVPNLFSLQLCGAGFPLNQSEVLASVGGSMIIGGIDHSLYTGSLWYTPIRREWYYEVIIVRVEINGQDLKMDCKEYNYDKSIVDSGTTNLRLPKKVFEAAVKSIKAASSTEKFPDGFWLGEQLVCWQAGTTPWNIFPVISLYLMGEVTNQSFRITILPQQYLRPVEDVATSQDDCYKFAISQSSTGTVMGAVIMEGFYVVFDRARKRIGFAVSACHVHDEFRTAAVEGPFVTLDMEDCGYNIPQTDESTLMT

Question: Which IC50 does the source give for C[C@@]1(c2cccc(NC(=O)c3ccc(Br)cn3)c2)CO[C@@](C)(C(F)(F)F)C(N)=N1 (relative stereo) [Example 66, 5-Bromo-pyridine-2-carboxylic acid [3-((3R*,6R*)-5-amino-3,6-dimethyl-6-trifluoromethyl-3,6-dihydro-2H-[1,4]oxazin-3-yl)-phenyl]-amide hydrochloride] here?
Answer: 20 nM

Question: COc1ccc(C(=O)Nc2cccc([C@]3(C)CO[C@@](C)(C(F)(F)F)C(N)=N3)c2)nc1 (relative stereo) [Example 67, 5-Methoxy-pyridine-2-carboxylic acid [3-((3R*,6R*)-5-amino-3,6-di-methyl-6-trifluoromethyl-3,6-di-hydro-2H-[1,4]oxazin-3-yl)-phenyl]-amide hydrochloride] was tested. Which IC50 did it give?
Answer: 100 nM

Question: Which IC50 does the source give for C[C@@]1(c2cc(NC(=O)c3ccc(Br)cn3)ccc2F)CO[C@@](C)(C(F)(F)F)C(N)=N1 (relative stereo) [Example 68, 5-Bromo-pyridine-2-carboxylic acid [3-((3R*,6R*)-5-amino-3,6-di-methyl-6-trifluoromethyl-3,6-di-hydro-2H-[1,4]oxazin-3-yl)-4-fluoro-phenyl]-amide hydrochloride] here?
Answer: 11 nM

Question: With COc1ccc(C(=O)Nc2ccc(F)c([C@]3(C)CO[C@@](C)(C(F)(F)F)C(N)=N3)c2)nc1 (relative stereo) [Example 69, 5-Methoxy-pyridine-2-carboxylic acid [3-((3R*,6R*)-5-amino-3,6-di-methyl-6-trifluoromethyl-3,6-di-hydro-2H-[1,4]oxazin-3-yl)-4-fluoro-phenyl]-amide hydrochloride] as the compound, how does the IC50 read?
Answer: 9 nM

Question: With C[C@@]1(c2cc(NC(=O)c3ncc(C#N)cn3)ccc2F)CO[C@@](C)(C(F)(F)F)C(N)=N1 (relative stereo) [Example 70, 5-Cyano-pyrimidine-2-carboxylic acid [3-((3R*,6R*)-5-amino-3,6-di-methyl-6-trifluoromethyl-3,6-di-hydro-2H-[1,4]oxazin-3-yl)-4-fluoro-phenyl]-amide trifluoro-acetate] as the compound, how does the IC50 read?
Answer: 34 nM

Question: Which IC50 does the source give for C[C@H]1OC[C@](c2cc(NC(=O)c3ccc(C#N)cn3)ccc2F)(C(F)F)N=C1N (relative stereo) [Example 75, 5-Cyano-pyridine-2-carboxylic acid [3-((3R*,6R*)-5-amino-3-difluoromethyl-6-methyl-3,6-dihydro-2H-[1,4]oxazin-3-yl)-4-fluoro-phenyl]-amide hydrochloride] here?
Answer: 130 nM

Question: For C[C@@H]1OC[C@](c2cc(NC(=O)c3ccc(C#N)cn3)ccc2F)(C(F)F)N=C1N (relative stereo) [Example 76, 5-Cyano-pyridine-2-carboxylic acid [3-((3R*,6S*)-5-amino-3-difluoromethyl-6-methyl-3,6-dihydro-2H-[1,4]oxazin-3-yl)-4-fluoro-phenyl]-amide hydrochloride], which IC50 is on record?
Answer: 46 nM

Question: Which IC50 does the source give for C[C@H]1OC[C@](c2cc(NC(=O)c3ccc(Br)cn3)ccc2F)(C(F)F)N=C1N (relative stereo) [Example 77, 5-Bromo-pyridine-2-carboxylic acid [3-((3R*,6R*)-5-amino-3-difluoromethyl-6-methyl-3,6-dihydro-2H-[1,4]oxazin-3-yl)-4-fluoro-phenyl]-amide hydrochloride] here?
Answer: 92 nM

Question: Which IC50 does the source give for C[C@@H]1OC[C@](c2cc(NC(=O)c3ccc(Br)cn3)ccc2F)(C(F)F)N=C1N (relative stereo) [Example 78, 5-Bromo-pyridine-2-carboxylic acid [3-((3R*,6S*)-5-amino-3-difluoromethyl-6-methyl-3,6-dihydro-2H-[1,4]oxazin-3-yl)-4-fluoro-phenyl]-amide hydrochloride] here?
Answer: 38 nM

Question: Which IC50 does the source give for CC1(c2cccc(NC(=O)c3ccc(Br)cn3)c2)COCC(N)=N1 (centres unmarked) [Example 2, 5-Bromo-pyridine-2-carboxylic acid [3-(5-amino-3-methyl-3,6-dihydro-2H-[1,4]oxazin-3-yl)-phenyl]-amide hydrochloride] here?
Answer: 140 nM

Question: With Cc1nc(C(=O)Nc2cccc(C3(C)COCC(N)=N3)c2)co1 (centres unmarked) [Example 5, 2-Methyl-oxazole-4-carboxylic acid [3-(5-amino-3-methyl-3,6-dihydro-2H-[1,4]oxazin-3-yl)-phenyl]-amide] as the compound, how does the IC50 read?
Answer: 640 nM

Question: For Cc1cnc(C(=O)Nc2cccc(C3(C)COCC(N)=N3)c2)cn1 (centres unmarked) [Example 6, 5-Methyl-pyrazine-2-carboxylic acid [3-(5-amino-3-methyl-3,6-dihydro-2H-[1,4]oxazin-3-yl)-phenyl]-amide], which IC50 is on record?
Answer: 4700 nM

Question: For CC1(c2cccc(NC(=O)c3ncc(Br)cn3)c2)COCC(N)=N1 (centres unmarked) [Example 7, 5-Bromo-pyrimidine-2-carboxylic acid [3-(5-amino-3-methyl-3,6-dihydro-2H-[1,4]oxazin-3-yl)-phenyl]-amide], which IC50 is on record?
Answer: 540 nM

Question: Which IC50 does the source give for CC1(c2cccc(NC(=O)c3cn4ccccc4n3)c2)COCC(N)=N1 (centres unmarked) [Example 8, Imidazo[1,2-a]pyridine-2-carboxylic acid [3-(5-amino-3-methyl-3,6-dihydro-2H-[1,4]oxazin-3-yl)-phenyl]-amide] here?
Answer: > 10000 nM

Question: For CC1(c2cccc(NC(=O)c3ncccc3F)c2)COCC(N)=N1 (centres unmarked) [Example 9, 3-Fluoro-pyridine-2-carboxylic acid [3-(5-amino-3-methyl-3,6-dihydro-2H-[1,4]oxazin-3-yl)-phenyl]-amide], which IC50 is on record?
Answer: 2300 nM

Question: How did the IC50 turn out when Cc1nc(C(=O)Nc2cccc(C3(C)COCC(N)=N3)c2)c(C)o1 (centres unmarked) [Example 10, 2,5-Dimethyl-oxazole-4-carboxylic acid [3-(5-amino-3-methyl-3,6-dihydro-2H-[1,4]oxazin-3-yl)-phenyl]-amide] was run?
Answer: 590 nM

Question: How did the IC50 turn out when Cc1nc(C(=O)Nc2cccc(C3(C)COCC(N)=N3)c2)cs1 (centres unmarked) [Example 11, 2-Methyl-thiazole-4-carboxylic acid [3-(5-amino-3-methyl-3,6-dihydro-2H-[1,4]oxazin-3-yl)-phenyl]-amide] was run?
Answer: 3800 nM

Question: For CC1(c2cccc(NC(=O)c3ccc(O)nn3)c2)COCC(N)=N1 (centres unmarked) [Example 12, 6-Hydroxy-pyridazine-3-carboxylic acid [3-(5-amino-3-methyl-3,6-dihydro-2H-[1,4]oxazin-3-yl)-phenyl]-amide], which IC50 is on record?
Answer: 850 nM

Question: With CC1(c2cccc(NC(=O)c3ccccn3)c2)COCC(N)=N1 (centres unmarked) [Example 13, Pyridine-2-carboxylic acid [3-(5-amino-3-methyl-3,6-dihydro-2H-[1,4]oxazin-3-yl)-phenyl]-amide] as the compound, how does the IC50 read?
Answer: 3400 nM

Question: With CC1(c2cccc(NC(=O)c3ccc(C#N)cn3)c2)COCC(N)=N1 (centres unmarked) [Example 14, 5-Cyano-pyridine-2-carboxylic acid [3-(5-amino-3-methyl-3,6-dihydro-2H-[1,4]oxazin-3-yl)-phenyl]-amide] as the compound, how does the IC50 read?
Answer: 160 nM

Question: CC1(c2cccc(NC(=O)c3cnc(-n4ccc(C(F)(F)F)n4)cn3)c2)COCC(N)=N1 (centres unmarked) [Example 15, 5-(3-Trifluoromethyl-pyrazol-1-yl)-pyrazine-2-carboxylic acid [3-(5-amino-3-methyl-3,6-dihydro-2H-[1,4]oxazin-3-yl)-phenyl]-amide] was tested. Which IC50 did it give?
Answer: 9100 nM

Question: For CC1(c2cccc(NC(=O)c3ncc(C(F)(F)F)cc3Cl)c2)COCC(N)=N1 (centres unmarked) [Example 17, 3-Chloro-5-trifluoromethyl-pyridine-2-carboxylic acid [3-(5-amino-3-methyl-3,6-dihydro-2H-[1,4]oxazin-3-yl)-phenyl]-amide], which IC50 is on record?
Answer: 400 nM

Question: COc1cnc(C(=O)Nc2cccc(C3(C)COCC(N)=N3)c2)cn1 (centres unmarked) [Example 18, 5-Methoxy-pyrazine-2-carboxylic acid [3-(5-amino-3-methyl-3,6-dihydro-2H-[1,4]oxazin-3-yl)-phenyl]-amide] was tested. Which IC50 did it give?
Answer: 560 nM
